Compound: CC(C)(C)c1cc(NC(=O)Nc2ccc(-c3cn4c(n3)sc3cc(OCCN5CCOCC5)ccc34)cc2)no1 [Quizartinib] + CCNC(=O)c1noc(-c2cc(C(C)C)c(O)cc2O)c1-c1ccc(CN2CCOCC2)cc1 [Luminespib] (partner 0.01 µM)
Experiment: relative viability (nuclei count vs DMSO), 5 days (fraction); higher = more cells survive
Conditions: first compound 0.001 µM
Outline: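 Relative viability equals treated-well nuclei counts divided by vehicle-well nuclei counts. Counts came from 4× images of lung cancer cell lines grown in 1536-well plates for 5 days after pin-tool dosing on the day after seeding. Dosing used one drug alone or a fixed anchor-drug dose plus five library-drug doses (not always all listed) in √10 steps, and values are medians of duplicate plates.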

Cell Line | relative viability
NCI-H1944 | 0.757
NCI-H2126 | 0.844
EMC-BAC-2 | 1.11
SK-LU-1 | 0.205
NCI-H2170 | 0.65
SW 900 | 0.159
NCI-H661 | 0.921
NCI-H358 | 0.224
CAL-12T | 0.456
LK-2 | 0.162
HOP-62 | 0.914
PC-14 | 0.181
NCI-H1993 | 0.862
NCI-H2405 | 0.641
NCI-H3122 | 0.0909
A-427 | 1.03
NCI-H2342 | 0.807
LOU-NH91 | 0.317
NCI-H596 | 0.922
NCI-H1666 | 0.977
NCI-H23 | 0.209
NCI-H838 | 0.203
NCI-H322M | 0.81
NCI-H1793 | 0.161
NCI-H441 | 0.352
SW 1573 | 0.163
201T | 1.01
NCI-H1755 | 0.473

Same assay, conditions: first compound 0.003162 µM

Cell Line | relative viability
ABC-1 | 0.445
NCI-H1734 | 0.257
COR-L 105 | 0.765
HCC-15 | 0.281
HARA | 0.684
NCI-H1975 | 0.273
NCI-H1944 | 0.804
NCI-H2126 | 0.828
EMC-BAC-2 | 1.15
SK-LU-1 | 0.191
NCI-H2170 | 0.741
SW 900 | 0.188
NCI-H661 | 0.899
NCI-H358 | 0.359
CAL-12T | 0.373
HOP-62 | 0.843
PC-14 | 0.168

Cell Line | relative viability
NCI-H1993 | 1.03
NCI-H2405 | 0.747
NCI-H3122 | 0.0886
A-427 | 0.777
NCI-H2342 | 0.752
LOU-NH91 | 0.355
NCI-H596 | 0.884
NCI-H1666 | 1.05
NCI-H23 | 0.245
NCI-H838 | 0.207
NCI-H322M | 0.92
NCI-H1793 | 0.171
NCI-H441 | 0.369
NCI-H727 | 0.443
SW 1573 | 0.21
201T | 1.01
NCI-H1755 | 0.243

Same assay, conditions: first compound 0.01 µM

Cell Line | relative viability
ABC-1 | 0.504
NCI-H1734 | 0.188
COR-L 105 | 0.738
HCC-15 | 0.197
HARA | 0.933
NCI-H1975 | 0.164
NCI-H1944 | 0.774
NCI-H2126 | 0.798
EMC-BAC-2 | 1.2
SK-LU-1 | 0.212
NCI-H2170 | 0.838
NCI-H661 | 0.929
NCI-H358 | 0.309
CAL-12T | 0.638
LK-2 | 0.193
HOP-62 | 1.04
PC-14 | 0.164

Cell Line | relative viability
NCI-H1993 | 0.965
NCI-H2405 | 0.562
NCI-H3122 | 0.079
A-427 | 0.988
NCI-H2342 | 0.696
LOU-NH91 | 0.292
NCI-H596 | 1.02
NCI-H1666 | 1.02
NCI-H23 | 0.219
NCI-H838 | 0.329
NCI-H322M | 0.944
NCI-H1793 | 0.467
NCI-H441 | 0.339
NCI-H727 | 0.41
SW 1573 | 0.164
201T | 0.963
NCI-H1755 | 0.555

Same assay, conditions: first compound 0.03162 µM

Cell Line | relative viability
NCI-H1734 | 0.178
COR-L 105 | 0.693
HCC-15 | 0.346
HARA | 0.526
NCI-H1975 | 0.212
NCI-H1944 | 0.727
SK-LU-1 | 0.201
NCI-H2170 | 0.769
SW 900 | 0.153
NCI-H661 | 0.905
NCI-H358 | 0.475
CAL-12T | 0.357
LK-2 | 0.205
HOP-62 | 0.933
NCI-H1993 | 0.844
NCI-H2405 | 0.75
NCI-H3122 | 0.106
A-427 | 0.506
NCI-H2342 | 0.759
LOU-NH91 | 0.362
NCI-H596 | 0.852
NCI-H1666 | 0.789
NCI-H838 | 0.281
NCI-H322M | 0.448
NCI-H1793 | 0.174
NCI-H727 | 0.665
201T | 1.01
NCI-H1755 | 0.459

Same assay, conditions: first compound 0.1 µM

Cell Line | relative viability
ABC-1 | 0.498
NCI-H1734 | 0.197
COR-L 105 | 0.59
HCC-15 | 0.33
HARA | 0.566
NCI-H1975 | 0.202
NCI-H1944 | 0.722
NCI-H2126 | 1.11
EMC-BAC-2 | 1.23
SK-LU-1 | 0.232
NCI-H2170 | 0.737
SW 900 | 0.161
NCI-H661 | 0.9
NCI-H358 | 0.228
CAL-12T | 0.363
LK-2 | 0.22
HOP-62 | 0.9
PC-14 | 0.127

Cell Line | relative viability
NCI-H1993 | 0.692
NCI-H2405 | 0.724
NCI-H3122 | 0.112
A-427 | 1.01
NCI-H2342 | 0.762
LOU-NH91 | 0.343
NCI-H596 | 0.888
NCI-H1666 | 1.03
NCI-H23 | 0.185
NCI-H838 | 0.234
NCI-H322M | 0.895
NCI-H1793 | 0.159
NCI-H441 | 0.362
NCI-H727 | 0.309
SW 1573 | 0.255
201T | 1.01
NCI-H1755 | 0.39
